Source: PubChem BioAssay (NCI)
Several values for one entry are separate records, joined by “and”; a condition that tells them apart may be missing. Equal entries are not always repeated.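 A five-concentration, 48-hour dose response in 96-well plates underlies each endpoint, interpolated linearly between surrounding concentrations. GI50: concentration for 50% inhibition of growth. TGI denotes the concentration required for complete inhibition of growth.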

Assays:
Test in all cases: NCI-60 cell line screen, 48 h
OVCAR-5 ovarian = tested on: OVCAR-5 ovarian
HOP-62 NSCLC = tested on: HOP-62 NSCLC
SK-MEL-5 melanoma = tested on: SK-MEL-5 melanoma
NCI-H522 lung = tested on: NCI-H522 lung
A498 renal = tested on: A498 renal
OVCAR-8 ovarian = tested on: OVCAR-8 ovarian
A549 NSCLC = tested on: A549 NSCLC
T-47D breast = tested on: T-47D breast
BT-549 breast = tested on: BT-549 breast
HS 578T breast = tested on: HS 578T breast

Row | Structure (SMILES) | TGI (OVCAR-5 ovarian) | TGI (HOP-62 NSCLC) | TGI (SK-MEL-5 melanoma) | TGI (NCI-H522 lung) | TGI (A498 renal) | TGI (OVCAR-8 ovarian) | TGI (A549 NSCLC) | TGI (T-47D breast) | TGI (BT-549 breast) | TGI (HS 578T breast) | GI50 (T-47D breast) | GI50 (OVCAR-5 ovarian) | GI50 (HOP-62 NSCLC) | GI50 (SK-MEL-5 melanoma) | GI50 (BT-549 breast) | GI50 (HS 578T breast) | GI50 (A498 renal) | GI50 (OVCAR-8 ovarian) | GI50 (A549 NSCLC) | GI50 (NCI-H522 lung)
1 | Cc1ccc(/C=C/C(=O)c2ccc(Cl)c(Cl)c2)cc1 | > 100 µM | > 100 µM | > 100 µM | > 100 µM | > 100 µM | > 100 µM | > 100 µM | – | – | – | – | – | – | – | – | – | – | – | – | –
2 | CC1=CCC2CC1C(C(=O)c1c[nH]c3ccccc13)=NC2(C)C (stereo unspecified) | > 100 µM | > 100 µM | > 100 µM | > 100 µM | > 100 µM | > 100 µM | > 100 µM | 99.2 µM | > 100 µM | > 100 µM | – | – | – | – | – | – | – | – | – | –
3 | CC1=C(C#N)C23C(=O)N(c4ccccc4)C(=O)C2=C(O)C=CC3(O)N1Cc1ccc(Cl)cc1Cl (stereo unspecified) | 23.4 µM | 15.7 µM | 17 µM | – | 18.1 µM | 13.8 µM | 28.5 µM | 14.6 µM | 3.17 µM | 11.6 µM | 2.93 µM | 5 µM | 4.31 µM | 5.19 µM | 1.46 µM | 3.13 µM | 5.79 µM | 3.52 µM | 12.2 µM | –
4 | Cc1cccc(-c2nnc3s/c(=C\c4ccc(N(C)C)cc4)c(=O)n23)c1 | > 100 µM | > 100 µM | > 100 µM | > 100 µM | > 100 µM | > 100 µM | > 100 µM | – | – | – | – | – | – | – | – | – | – | – | – | –
5 | Nc1ncc(-c2ccc3ncnc(Nc4cccc(Cl)c4)c3c2)cn1 | – | > 100 µM | > 100 µM | 4.95 µM | – | > 100 µM | > 100 µM | – | – | – | – | – | 0.388 µM and 2.98 µM | 2.31 µM | 0.262 µM | – | – | 2.87 µM | 1.7 µM | 0.128 µM
6 | CC(C)(C)C(=O)N1C(C(=O)O)Cc2ccccc2[C@@H]1Cc1ccccc1 (stereo partly specified) | > 100 µM | > 100 µM | > 100 µM | > 100 µM | > 100 µM | > 100 µM | > 100 µM | – | – | – | – | – | – | – | – | – | – | – | – | –
7 | Cc1ccc(S(=O)(=O)ON2C(=O)c3cccc4cc([N+](=O)[O-])cc(c34)C2=O)cc1 | > 100 µM | > 100 µM | > 100 µM | > 100 µM | – | > 100 µM | > 100 µM | > 100 µM | > 100 µM | > 100 µM | – | – | – | – | – | – | – | – | – | –
8 | COc1ccc2c(c1)c(-c1nc(-c3cn(C)c4ccncc34)cs1)cn2C | 3.53 µM | 3.62 µM | 2.85 µM | 3.26 µM | 20.4 µM | – | 3.99 µM | – | – | – | – | 1.81 µM | 1.9 µM | 1.52 µM | – | – | 6.59 µM | – | 1.93 µM | 1.77 µM
9 | CN(C)c1ccc(/C=N/NC(N)=S)nc1 | – | > 100 µM | > 100 µM | > 100 µM | 9.37 µM | > 100 µM | > 100 µM | > 100 µM | > 100 µM | – | 4.32 µM | – | 3.11 µM | 2.52 µM | 4.39 µM | – | 1.92 µM | 3.24 µM | 4.61 µM | 1.2 µM
10 | CCCCCCCCCCCCSC(=S)c1c(C)[nH]n(-c2ccccc2)c1=O | > 50 µM | 15.6 µM | 15.9 µM | – | > 50 µM | > 50 µM | > 50 µM | – | – | – | – | – | – | – | – | – | – | – | – | –
11 | Cc1ccc(OCC2CO2)c(Br)c1 (stereo unspecified) | 34.6 µM | > 100 µM | 60.5 µM | – | > 100 µM | 20.4 µM | 62.2 µM | > 100 µM | 0.879 µM | > 100 µM | – | – | – | – | – | – | – | – | – | –
12 | NC(=O)CC1OC(=O)Cc2cc3c(c(O)c21)C(=O)c1c(O)cccc1C3=O (stereo unspecified) | > 100 µM | – | > 100 µM | > 100 µM | > 100 µM | > 100 µM | > 100 µM | > 100 µM | > 100 µM | – | – | – | – | – | – | – | – | – | – | –
13 | Nc1nc(=O)n(C2CCC(CO)O2)cc1F (stereo unspecified) | > 100 µM | > 100 µM | > 100 µM | > 100 µM | – | > 100 µM | > 100 µM | – | – | – | – | – | – | – | – | – | – | – | – | –
14 | CC(C)(C)OC(=O)C1C(=O)NC(=O)CC1CC(OCc1ccccc1)C(OCc1ccccc1)C(COCc1ccccc1)OCc1ccccc1 (stereo unspecified) | > 100 µM | > 100 µM | > 100 µM and 37.6 µM | – | > 100 µM | > 100 µM | > 100 µM and 28.5 µM | 81 µM | 79.5 µM and > 100 µM | > 100 µM | – | – | > 100 µM and 34 µM | 22 µM and 10.6 µM | – | – | – | 33.1 µM and 12 µM | 26 µM and 5.23 µM | –
15 | O=C(C[n+]1ccccc1)N/N=C(/CCC(=O)N(Cc1ccccc1)Cc1ccccc1)CC(=O)c1ccccc1 | > 100 µM | > 100 µM | > 100 µM | > 100 µM | > 100 µM | > 100 µM | > 100 µM | – | – | – | – | – | – | – | – | – | – | – | – | –
16 | O=S(=O)(N=C1C(Cl)=C(Cl)C(=NS(=O)(=O)c2ccccc2)C(Cl)=C1Cl)c1ccccc1 | > 100 µM | 80.3 µM | 36.5 µM | 29.7 µM | 50.9 µM | 50.6 µM | > 100 µM | > 100 µM | 37.5 µM | – | 23.8 µM | 45.2 µM | 27.5 µM | 13.9 µM | 17.3 µM | – | 15.9 µM | 17.7 µM | 32.3 µM | 11.1 µM
17 | CSc1ccc(C2=NN(C(C)=O)C(c3ccc(-c4cc(Cl)c(Cl)cc4Cl)o3)C2)cc1 (stereo unspecified) | 27.4 µM | 29.4 µM | 25.1 µM | 29.7 µM | – | 36.9 µM | 33 µM | 37.2 µM | 30.8 µM | 53 µM | 11.9 µM | 14.3 µM | 15.8 µM | 12.6 µM | 16.6 µM | 22.8 µM | – | 16.9 µM | 17 µM | 13.2 µM
18 | COC(=O)/C=C1/SC(=Nc2cccc(Cl)c2)N(CCc2c[nH]c3ccc(O)cc23)C1=O | 4.07 µM | 3.93 µM | 4.19 µM | 3.4 µM | – | 6.72 µM | 6.95 µM | 7.15 µM | 3.05 µM | 8.99 µM | 2.03 µM | 1.92 µM | 1.9 µM | 1.99 µM | 1.24 µM | 2.68 µM | – | 2.32 µM | 2.65 µM | 1.63 µM
19 | CSC(=O)C[C@@]12O[C@@H]([C@@H](C)C3CCC4[C@@H]5C(O)CC6=CC(=O)C=C[C@]6(C)C5CC[C@@]43C)C[C@](C)(O1)C(C)(C)O2 (stereo partly specified) | 31.8 µM | 34.8 µM | – | 30 µM | 31.5 µM | 37.9 µM | 32 µM | – | – | – | – | – | – | – | – | – | – | – | – | –
